Laboratory results reported in PubChem BioAssay AID308 (DTP/NCI, 2004).
Toxic doses and inconclusive results are not listed.

Tested on: BDF1 mice, L1210 6-MP/6-TG resistant leukemia ip, survival T/C
Test: NCI In Vivo Anticancer Drug Screen. Data for tumor model L1210 Leukemia resistant to 6-MP and 6-Thioguanine; NSC 755, NSC 752 (intraperitoneal) in B6D2F1 (BDF1) mice
Conditions: endpoint: mean survival time, higher = longer survival
Procedure: The antitumor activity of compounds was measured in mice bearing transplantable tumors. Survival or tumor size were measured and the results are expressed as the measurement made in the treated group (T) divided by the measurement made in the vehicle treated control group (C). The tumor model used in this assay is L1210 Leukemia resistant to 6-MP and 6-Thioguanine; NSC 755, NSC 752 (intraperitoneal) in B6D2F1 (BDF1) mice

[1] = dose: 250.0 mg/kg/injection, schedule: Q01DX Z (ip), vehicle: carboxymethylcellulose (CMC)

Compound: CCCC(=O)OCC1OC(n2cnc3c(=S)nc(N)[nH]c32)C(OC(=O)CCC)C1OC(=O)CCC (centres undefined)
- T/C (dose: 6.0 mg/kg/injection, schedule: Q01DX Z (ip), vehicle: carboxymethylcellulose (CMC)): 113 % of control
- T/C (dose: 12.0 mg/kg/injection, schedule: Q01DX Z (ip), vehicle: carboxymethylcellulose (CMC)): 93 % of control
- T/C (dose: 24.0 mg/kg/injection, schedule: Q01DX Z (ip), vehicle: carboxymethylcellulose (CMC)): 98 % of control

Compound: CN(Cc1cnc2nc(N)nc(N)c2n1)c1ccc(C(=O)N[C@@H](CCC(=O)O)C(=O)O)cc1
- T/C (dose: 0.6 mg/kg/injection, schedule: Q02DX010 (ip), vehicle: carboxymethylcellulose (CMC)): 172 % of control
- T/C (dose: 0.9 mg/kg/injection, schedule: Q02DX010 (ip), vehicle: carboxymethylcellulose (CMC)): 163 % of control
- T/C (dose: 1.3 mg/kg/injection, schedule: Q02DX010 (ip), vehicle: carboxymethylcellulose (CMC)): 220 % of control
- T/C (dose: 2.0 mg/kg/injection, schedule: Q02DX010 (ip), vehicle: carboxymethylcellulose (CMC)): 261 % of control
- T/C (dose: 3.0 mg/kg/injection, schedule: Q02DX010 (ip), vehicle: carboxymethylcellulose (CMC)): 282 % of control
- T/C (dose: 4.5 mg/kg/injection, schedule: Q02DX010 (ip), vehicle: carboxymethylcellulose (CMC)): 294 % of control
- T/C (dose: 6.75 mg/kg/injection, schedule: Q02DX010 (ip), vehicle: carboxymethylcellulose (CMC)): 290 % of control

Compound: Cn1cnc2c(SCc3ccccc3)ncnc21
- T/C (dose: 12.5 mg/kg/injection, schedule: Q01DX Z (ip), vehicle: carboxymethylcellulose (CMC)): 100 % of control
- T/C (dose: 25.0 mg/kg/injection, schedule: Q01DX Z (ip), vehicle: carboxymethylcellulose (CMC)): 107 % of control
- T/C (dose: 50.0 mg/kg/injection, schedule: Q01DX Z (ip), vehicle: carboxymethylcellulose (CMC)): 100 % of control
- T/C (dose: 93.0 mg/kg/injection, schedule: Q01DX Z (ip), vehicle: carboxymethylcellulose (CMC)): 87 % of control
- T/C (dose: 100.0 mg/kg/injection, schedule: Q01DX Z (ip), vehicle: carboxymethylcellulose (CMC)): 102 % of control
- T/C (dose: 187.0 mg/kg/injection, schedule: Q01DX Z (ip), vehicle: carboxymethylcellulose (CMC)): 98 % of control
- T/C [1]: 92 % of control

Compound: C[N+](C)(C)c1ncnc2nc[nH]c12
- T/C (dose: 11.25 mg/kg/injection, schedule: Q01DX Z (ip), vehicle: saline): 101 % of control
- T/C (dose: 22.5 mg/kg/injection, schedule: Q01DX Z (ip), vehicle: saline): 100 % of control
- T/C (dose: 45.0 mg/kg/injection, schedule: Q01DX Z (ip), vehicle: saline): 102 % of control
- T/C (dose: 50.0 mg/kg/injection, schedule: Q01DX Z (ip), vehicle: saline): 105 % of control
- T/C (dose: 90.0 mg/kg/injection, schedule: Q01DX Z (ip), vehicle: saline): 94 % of control
- T/C (dose: 100.0 mg/kg/injection, schedule: Q01DX Z (ip), vehicle: saline): 99 % of control

Compound: Nn1cnc2c(=S)nc[nH]c21
- T/C (dose: 18.0 mg/kg/injection, schedule: Q01DX009 (ip), vehicle: other): 98 % of control
- T/C (dose: 28.0 mg/kg/injection, schedule: Q01DX009 (ip), vehicle: other): 96 % of control
- T/C (dose: 42.0 mg/kg/injection, schedule: Q01DX015 (ip), vehicle: other): 99 % of control
- T/C (dose: 72.0 mg/kg/injection, schedule: Q01DX015 (ip), vehicle: other): 92 % of control

Compound: Clc1ccccc1CSc1ncnc2nc[nH]c12
- T/C (dose: 62.5 mg/kg/injection, schedule: Q01DX Z (ip), vehicle: other): 96 % of control
- T/C (dose: 125.0 mg/kg/injection, schedule: Q01DX Z (ip), vehicle: other): 92 % of control
- T/C (dose: 250.0 mg/kg/injection, schedule: Q01DX Z (ip), vehicle: other): 86 % of control

Compound: CCC1(Sc2ncnc3nc[nH]c23)C(=O)NC(=O)NC1=O
- T/C (dose: 6.25 mg/kg/injection, schedule: Q01DX010 (ip), vehicle: alkali diluted with saline): 104 % of control
- T/C (dose: 12.5 mg/kg/injection, schedule: Q01DX010 (ip), vehicle: alkali diluted with saline): 96 % of control
- T/C (dose: 25.0 mg/kg/injection, schedule: Q01DX010 (ip), vehicle: alkali diluted with saline): 107 % of control
- T/C (dose: 50.0 mg/kg/injection, schedule: Q01DX010 (ip), vehicle: alkali diluted with saline): 102 % of control
- T/C (dose: 100.0 mg/kg/injection, schedule: Q01DX010 (ip), vehicle: alkali diluted with saline): 104 % of control
- T/C (dose: 200.0 mg/kg/injection, schedule: Q01DX010 (ip), vehicle: alkali diluted with saline): 107 % of control

Compound: Ic1ncnc2nc[nH]c12
- T/C (dose: 62.5 mg/kg/injection, schedule: Q01DX Z (ip), vehicle: carboxymethylcellulose (CMC)): 88 % of control
- T/C (dose: 125.0 mg/kg/injection, schedule: Q01DX Z (ip), vehicle: carboxymethylcellulose (CMC)): 89 % of control
- T/C [1]: 89 % of control
